We go through 24 molecules from US10590113B2, “6-hydroxy-4-oxo-1,4-dihydropyrimidine-5-carboxamides as APJ agonists” (priority 2016, dated 2020).

Structures are written as SMILES. Read-outs that look alike come from different tables or passages of the source.

The assay addresses T1, human APJ receptor (Homo sapiens, UniProt P35414).
T1 construct: expressed in transfected cells; host or cells: HEK293
T1 sequence (P35414 1-380): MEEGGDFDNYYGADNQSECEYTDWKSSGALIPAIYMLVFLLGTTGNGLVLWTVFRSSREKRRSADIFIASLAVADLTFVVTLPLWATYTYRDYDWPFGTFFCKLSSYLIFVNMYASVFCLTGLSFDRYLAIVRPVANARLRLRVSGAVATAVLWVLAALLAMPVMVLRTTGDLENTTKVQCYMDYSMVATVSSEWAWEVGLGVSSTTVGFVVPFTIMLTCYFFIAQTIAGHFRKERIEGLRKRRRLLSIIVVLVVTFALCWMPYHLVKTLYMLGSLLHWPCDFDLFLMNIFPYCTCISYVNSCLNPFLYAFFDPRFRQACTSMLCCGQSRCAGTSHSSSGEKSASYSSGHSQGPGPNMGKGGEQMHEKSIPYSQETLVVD
Briefly: Intracellular cAMP Accumulation Assay (APJ hcAMP, HTRF). It counts as cell-based. The note with it: human APJ, read-out: hAPJ cAMP EC50 Potency range. The procedure, abridged:
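Stably transfected HEK293 cells (5,000/well) incubated 30 min at room temperature with serially diluted compound, […] and 2 μM forskolin. cAMP measured by HTRF after 60 min with detection reagents, quantified against a cAMP standard curve; EC50 from variable-slope sigmoidal fit of inhibition of forskolin-stimulated cAMP.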
(TR-FRET usually uses a lanthanide donor and a delayed reading to cut background.)

[1] abbreviates: intracellular cAMP accumulation.
Setting [2] is: cAMP accumulation, potency range class.

The EC50 is the concentration that produces a half-maximal response.

Consider `CC[C@@H](c1cc(F)cc(F)c1)n1c(-c2nc(C)cs2)nc(=O)c(C(=O)N2CCC(c3ccc(Cl)cn3)C2)c1O` (single isomer, unassigned) [Example 209], for which the half-maximal effective concentration (EC50) under setting [1] fell in the range of 0.01 to 10 nM.

As to `CC[C@@H](c1cc(F)cc(F)c1)n1c(-c2nc(C)cs2)nc(=O)c(C(=O)N2CCC(c3ncc(F)cc3F)C2)c1O` (single isomer, unassigned) [Example 210], under setting [1], the EC50 lay within 0.01 to 10 nM.

Turning to `CC[C@@H](c1cc(F)cc(F)c1)n1c(-c2nc(C)cs2)nc(=O)c(C(=O)N2CCC(c3ccc(F)cc3)C2)c1O` (single isomer, unassigned) [Example 211], the EC50 under setting [1] lay within 0.01 to 10 nM.

As to `CC[C@@H](c1cc(F)cc(F)c1)n1c(-c2ccn(CC)n2)nc(=O)c(C(=O)N2CCC(c3ncccc3F)C2)c1O` (single isomer, unassigned) [Example 212], the EC50 under setting [1] was in the range of 0.01 to 10 nM.

As to `CC[C@@H](c1cc(F)cc(F)c1)n1c(-c2ccn(CC)n2)nc(=O)c(C(=O)N2CCC(c3ccc(Cl)cn3)C2)c1O` (single isomer, unassigned) [Example 213], the 50% effective concentration (EC50) under setting [1] fell in the range of 0.01 to 10 nM.

On to `CC[C@@H](c1cc(F)cc(F)c1)n1c(-c2ccn(CC)n2)nc(=O)c(C(=O)N2CCC(c3ncc(Cl)cc3F)C2)c1O` (single isomer, unassigned) [Example 214], for which the EC50 under setting [1] fell in the range of 0.01 to 10 nM.

In the case of `CC[C@@H](c1cc(F)cc(F)c1)n1c(-c2ccn(CC)n2)nc(=O)c(C(=O)N2CCC(c3ncc(F)cc3F)C2)c1O` (single isomer, unassigned) [Example 215], the 50% effective concentration (EC50) under setting [1] is 0.01 to 10 nM.

Take `CC[C@@H](c1cc(F)cc(F)c1)n1c(-c2ccn(CC)n2)nc(=O)c(C(=O)N2CCC(c3ccc(F)cn3)C2)c1O` (single isomer, unassigned) [Example 216]: the EC50 under setting [1] lay in the range of 0.01 to 10 nM.

For the molecule `CC[C@@H](c1cc(F)cc(F)c1)n1c(-c2cnn(C)c2)nc(=O)c(C(=O)N2CCC(c3ncc(F)cc3F)C2)c1O` (single isomer, unassigned) [Example 217], the EC50 under setting [1] lay in the range of 0.01 to 10 nM.

With `CC[C@@H](c1cc(F)cc(F)c1)n1c(-c2cnn(C)c2)nc(=O)c(C(=O)N2CCC(c3ccc(Cl)cn3)C2)c1O` (single isomer, unassigned) [Example 218], the EC50 under setting [1] fell in the range of 0.01 to 10 nM.

With `CC[C@@H](c1cc(F)cc(F)c1)n1c(-c2cnn(C)c2)nc(=O)c(C(=O)N2CCC(c3ncccc3F)C2)c1O` (single isomer, unassigned) [Example 219], the concentration for a half-maximal effect (EC50) under setting [1] was 0.01 to 10 nM.

On to `CC[C@@H](c1cc(F)cc(F)c1)n1c(-c2cnn(C)c2)nc(=O)c(C(=O)N2CCC(c3ccc(F)cn3)C2)c1O` (single isomer, unassigned) [Example 220], for which, under setting [1], the half-maximal effective concentration (EC50) lay in the range of 0.01 to 10 nM.

Consider `CCc1cccc(CC)c1-n1c(COC(C)C)nc(=O)c(C(=O)N2CCC(c3ccncc3)C2)c1O` (single isomer, unassigned) [Example 221, 1-(2,6-diethylphenyl)-6-hydroxy-2-[(propan-2-yloxy)methyl]-5-[3-(pyridin-4-yl)pyrrolidine-1-carbonyl]-1,4-dihydropyrimidin-4-one], for which the EC50 under setting [2] lay in the range of 10 to 100 nM.

Regarding `COc1cccc(OC)c1-n1c(-c2ccc(F)cc2)nc(=O)c(C(=O)N2CCC(c3ccc(Cl)cc3)C2)c1O` (single isomer, unassigned) [Example 223], under setting [2], the EC50 was 10 to 100 nM.

In the case of `COc1cccc(OC)c1-n1c(-c2ccc(F)cc2)nc(=O)c(C(=O)N2CCC(c3ccncc3)C2)c1O` (single isomer, unassigned) [Example 224, 1-(2,6-dimethoxyphenyl)-2-(4-fluorophenyl)-6-hydroxy-5-[3-(pyridin-4-yl)pyrrolidine-1-carbonyl]-1,4-dihydropyrimidin-4-one], under setting [2], the EC50 is 10 to 100 nM.

As for `COc1cccc(OC)c1-n1c(CC2CC2)nc(=O)c(C(=O)N2CCC(c3ccccc3F)C2)c1O` (single isomer, unassigned) [Example 226, 2-(cyclopropylmethyl)-1-(2,6-dimethoxyphenyl)-5-[3-(2-fluorophenyl)pyrrolidine-1-carbonyl]-6-hydroxy-1,4-dihydropyrimidin-4-one], the EC50 under setting [2] was in the range of 0.01 to 10 nM.

Turning to `COc1cccc(OC)c1-n1c(CC2CC2)nc(=O)c(C(=O)N2CCC(c3ccc(Cl)cc3)C2)c1O` (single isomer, unassigned) [Example 228, 5-[3-(4-chlorophenyl)pyrrolidine-1-carbonyl]-2-(cyclopropylmethyl)-1-(2,6-dimethoxyphenyl)-6-hydroxy-1,4-dihydropyrimidin-4-one], under setting [2], the EC50 is 0.01 to 10 nM.

On to `COc1cccc(OC)c1-n1c(-c2ccc(F)cc2)nc(=O)c(C(=O)N2CCC(c3ccccc3Cl)C2)c1O` (single isomer, unassigned) [Example 229, 5-[3-(2-chlorophenyl)pyrrolidine-1-carbonyl]-1-(2,6-dimethoxyphenyl)-2-(4-fluorophenyl)-6-hydroxy-1,4-dihydropyrimidin-4-one], for which the EC50 under setting [2] is 0.01 to 10 nM.

With `COc1cccc(OC)c1-n1c(CC2CC2)nc(=O)c(C(=O)N2CCC(c3ccncc3)C2)c1O` (single isomer, unassigned) [Example 230, 2-(cyclopropylmethyl)-1-(2,6-dimethoxyphenyl)-6-hydroxy-5-[3-(pyridin-4-yl)pyrrolidine-1-carbonyl]-1,4-dihydropyrimidin-4-one], the concentration giving a half-maximal response (EC50) under setting [2] is 10 to 100 nM.

As to `COc1cccc(OC)c1-n1c(Cc2ccc(F)cc2)nc(=O)c(C(=O)N2CCC(c3ccccc3F)C2)c1O` (single isomer, unassigned) [Example 231, 1-(2,6-dimethoxyphenyl)-2-[(4-fluorophenyl)methyl]-5-[3-(2-fluorophenyl)pyrrolidine-1-carbonyl]-6-hydroxy-1,4-dihydropyrimidin-4-one], the EC50 under setting [2] is 10 to 100 nM.

For `COc1cccc(OC)c1-n1c(-c2cncc(C)c2)nc(=O)c(C(=O)N2CCC(c3ccc(F)cc3)C2)c1O` (single isomer, unassigned) [Example 232, 1-(2,6-dimethoxyphenyl)-5-[3-(4-fluorophenyl)pyrrolidine-1-carbonyl]-6-hydroxy-2-(5-methylpyridin-3-yl)-1,4-dihydropyrimidin-4-one], the EC50 under setting [2] fell in the range of 0.01 to 10 nM.

Consider `COc1cccc(OC)c1-n1c(-c2cncc(C)c2)nc(=O)c(C(=O)N2CCC(c3ccccc3F)C2)c1O` (single isomer, unassigned) [Example 233, 1-(2,6-dimethoxyphenyl)-5-[3-(2-fluorophenyl)pyrrolidine-1-carbonyl]-6-hydroxy-2-(5-methylpyridin-3-yl)-1,4-dihydropyrimidin-4-one], for which the half-maximal effective concentration (EC50) under setting [2] is 0.01 to 10 nM.

On to `COc1ccccc1C1CCN(C(=O)c2c(O)n(-c3c(OC)cccc3OC)c(-c3cncc(C)c3)nc2=O)C1` (single isomer, unassigned) [Example 234, 1-(2,6-dimethoxyphenyl)-6-hydroxy-5-[3-(2-methoxyphenyl)pyrrolidine-1-carbonyl]-2-(5-methylpyridin-3-yl)-1,4-dihydropyrimidin-4-one], for which, under setting [2], the EC50 is 0.01 to 10 nM.

For `COc1cccc(OC)c1-n1c(-c2cccc(C)n2)nc(=O)c(C(=O)N2CCC(c3ncc(F)cc3F)C2)c1O` (single isomer, unassigned) [Example 235, 5-[3-(3,5-difluoropyridin-2-yl)pyrrolidine-1-carbonyl]-1-(2,6-dimethoxyphenyl)-6-hydroxy-2-(6-methylpyridin-2-yl)-1,4-dihydropyrimidin-4-one], under setting [2], the EC50 fell in the range of 0.01 to 10 nM.
